Reference: patent US20200071310A1, “N-ARYL PYRAZOLES AS NRF2 REGULATORS” (GLAXOSMITHKLINE INTELLECTUAL PROPERTY DEVELOPMENT LIMITED, priority 2016, published 2020)

Target: T1, Keap1 (321-609) Kelch domain / TAMRA-labeled NRF2 peptide (ETGE motif) (Homo sapiens, UniProt Q14145)
T1 construct: the Kelch domain (321-609) of Keap1 is used
Experiment: NRF2-Keap1 FP Assay
Assay type: binding
Settings: Keap1 (321-609) 20 nM, Tamra labeled peptide 8 nM
Description: One model for the NRF2-Keap1 interaction is through two binding sites in the Neh2 domain on NRF2. The two sites are referred to as the DLG binding motif (latch domain, uM affinity) and the ETGE binding motif (hinge domain, nM affinity). The Keap1 protein consists of an N-terminal region (NTR), a broad complex, tramtrack, and brick a' brac domain (BTB), an intervening region (IVR), a double glycine repeat domain (DGR or Kelch), and a C-terminal region. The DLG and ETGE motifs of NRF2's Neh2 domain bind to the Kelch domain of Keap1 at different affinities. In the Keap1 Kelch fluorescence polarization (FP) assay, a TAMRA-labeled 16mer peptide (AFFAQLQLDEETGEFL) containing the ETGE motif of NRF2 and the Kelch domain (321-609) of Keap1 is used. The assay determines if a compound interferes with the binding between Keap1 […] and the TAMRA-labeled peptide. Binding of TAMRA-labeled NRF2 peptide to Keap1 (321-609) results in a high FP signal. If a compound interferes with the binding between the peptide and the protein, it will cause the assay signal to decrease. Thus, assay signal is inversely proportional to binding inhibition.
100 nl of 100× compound dose response curves (serial 3-fold dilutions) in DMSO were stamped using an Echo liquid handling system (Labcyte) into 384-well low volume black assay plates (Greiner, #784076), with DMSO in columns 6 and 18. The top concentration of compound was located in columns 1 and 13. Keap1 (321-609) was diluted to 40 nM (2×) in 1× assay buffer (50 mM Tris, pH 8.0, 100 mM NaCl, 5 mM MgCl2, 1 mM DTT, 2 mM CHAPS, and 0.005% BSA) and 5 ul was added using a Multidrop Combi (Thermo Electron Corporation) equipped with a metal tip dispenser to all wells of the compound plate, except column 18. Column 18 received only 5 ul of assay buffer. Immediately, 5 uL of 16 nM (2×) of Tamra labeled peptide (AFFAQLQLDEETGEFL, 21st Century Biochemicals) was added to all wells of the plate. The plates were spun at 500 rpm for 1 min, incubated for 1 hr at room temperature, and read on an Analyst GT (Molecular Devices) equipped with excitation (530/25 nm) and emission (580/10 nm) filters designed for Tamra probes. A 561 nm dichroic mirror was also used in the Analyst. The final assay concentrations of Keap1l (321-609) and Tamra labeled peptide were 20 nM and 8 nM, respectively. Fluorescence measurements, represented as mP, were used in the transformation of the data. Compound activity was calculated based on percent inhibition, normalized against controls in the assay (Control 1 contains the Tamra peptide and Keap1 (321-609) together (0% response) and control 2 contains the Tamra peptide alone (100% response)). Data analysis was handled using the software package Abase XE (Surrey, United Kingdom. The % inhibition values were calculated by the equation:
100−(100*((compound response−average control 2)/(average control 1−average control2))).
For calculation of pIC50s, Abase XE used a four parameter equation.
IC50s<1 nM (+++++), IC50s 1 nM-10 nM (++++), IC50s 10-100 nM (+++), IC50s 100 nM-1 μM (++), IC50s 1-10 μM (+), IC50s>10 μM (−), or were not determined (ND).

T1 sequence (Q14145 321-609): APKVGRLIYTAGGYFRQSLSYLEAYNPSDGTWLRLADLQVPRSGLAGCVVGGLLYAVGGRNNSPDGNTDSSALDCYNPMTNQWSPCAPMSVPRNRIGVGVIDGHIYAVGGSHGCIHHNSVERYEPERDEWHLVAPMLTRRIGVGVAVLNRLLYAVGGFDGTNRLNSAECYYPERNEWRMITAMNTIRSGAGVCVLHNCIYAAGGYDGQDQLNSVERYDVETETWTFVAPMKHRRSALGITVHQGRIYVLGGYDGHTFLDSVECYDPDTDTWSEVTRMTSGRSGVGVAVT

| Compound | EC50 |
| --- | --- |
| CC[C@H]1Cc2ccc(Br)cc2S(=O)(=O)N(Cc2cccc(-n3ncc(C(=O)O)c3[C@@H]3C[C@H]3c3cn(C)nn3)c2)C1 [Example 22, 1-(3-(((S)-8-bromo-4-ethyl-1,1-dioxido-4,5-dihydrobenzo[f][1,2]thiazepin-2(3H)-yl)methyl)phenyl)-5-((1R,2R)-2-(1-methyl-1H-1,2,3-triazol-4-yl)cyclopropyl)-1H-pyrazole-4-carboxylic acid] | < 1 nM |
| CC[C@@H]1CN(Cc2cc(-n3ncc(C(=O)O)c3C3C[C@H]3c3cn(C)nn3)ccc2C)S(=O)(=O)c2ccccc2O1 (stereo partly shown) [Example 25] | 1 to 10 nM |
| C[C@H]1Cc2ccc(C(F)(F)F)cc2S(=O)(=O)N([C@H]2CCc3c2cccc3-n2ncc(C(=O)O)c2[C@@H]2C[C@H]2c2cn(C)nn2)C1 [Example 26a, 1-((S)-1-((S)-4-Methyl-1,1-dioxido-8-(trifluoromethyl)-4,5-dihydrobenzo[f][1,2]thiazepin-2(3H)-yl)-2,3-dihydro-1H-inden-4-yl)-5-((1R,2R)-2-(1-methyl-1H-1,2,3-triazol-4-yl)cyclopropyl)-1H-pyrazole-4-carboxylic acid] | 10 to 100 nM |
| COc1ccccc1S(=O)(=O)N(C)C1CCc2ccc(-n3ncc(C(=O)O)c3[C@@H]3C[C@H]3c3cn(C)nn3)cc21 (stereo partly drawn) [Example 27, 1-(3-(2-methoxy-N-methylphenylsulfonamido)-2,3-dihydro-1H-inden-5-yl)-5-((1R,2R)-2-(1-methyl-1H-1,2,3-triazol-4-yl)cyclopropyl)-1H-pyrazole-4-carboxylic acid] | 1000 to 10000 nM |
| CC[C@@H]1CN(Cc2cc(-n3ncc(C(=O)O)c3[C@@H]3C[C@H]3c3cn(C)nn3)ccc2C)Cc2ccccc2O1 [Example 28] | 100 to 1000 nM |
| CC[C@@H]1CN(Cc2cccc(-n3ncc(C(=O)O)c3[C@@H]3C[C@H]3c3cn(CC(F)(F)F)nn3)c2)S(=O)(=O)c2ccccc2O1 [Example 29] | 1 to 10 nM |

Further lines, results first:

| EC50 | Compound |
| --- | --- |
| 10 to 100 nM | C[C@H]1Cc2cc(C(F)(F)F)ccc2S(=O)(=O)N(Cc2cccc(-n3ncc(C(=O)O)c3[C@@H]3C[C@H]3c3cnn(C)c3)c2)C1 [Example 30, 1-(3-(((S)-4-Methyl-1,1-dioxido-7-(trifluoromethyl)-4,5-dihydrobenzo[f][1,2]thiazepin-2(3H)-yl)methyl)phenyl)-5-(trans-2-(1-methyl-1H-pyrazol-4-yl)cyclopropyl)-1H-pyrazole-4-carboxylic acid] |
| 100 to 1000 nM | CC[C@@H]1CN(Cc2cccc(-n3ncc(C(=O)O)c3[C@@H]3C[C@H]3c3cnn(C)c3)c2)S(=O)(=O)c2ccccc2O1 [Example 31, 1-(3-(((R)-4-ethyl-1,1-dioxido-3,4-dihydro-2H-benzo[b][1,4,5]oxathiazepin-2-yl)methyl)-phenyl)-5-(trans-2-(1-methyl-1H-pyrazol-4-yl)cyclopropyl)-1H-pyrazole-4-carboxylic acid] |
| 100 to 1000 nM | C[C@H]1Cc2ccccc2S(=O)(=O)N(Cc2cccc(-n3ncc(C(=O)O)c3[C@@H]3C[C@H]3c3cnn(C)c3)c2)C1 [Example 32, 1-(3-(((S)-4-methyl-1,1-dioxido-4,5-dihydrobenzo[f][1,2]thiazepin-2(3H)-yl)methyl)-phenyl)-5-(trans-2-(1-methyl-1H-pyrazol-4-yl)cyclopropyl)-1H-pyrazole-4-carboxylic acid] |
| 1000 to 10000 nM | C[C@@H]1Cc2cc(C(F)(F)F)ccc2S(=O)(=O)N(Cc2cccc(-n3ncc(C(=O)O)c3[C@@H]3C[C@H]3c3cnn(C)c3)c2)C1 [Example 33, 1-(3-(((R)-4-methyl-1,1-dioxido-7-(trifluoromethyl)-4,5-dihydro-benzo[f][1,2]thiazepin-2(3H)-yl)methyl)phenyl)-5-(trans-2-(1-methyl-1H-pyrazol-4-yl)cyclopropyl)-1H-pyrazole-4-carboxylic acid] |
